Experiments:
[1] = system: PSA mRNA expression in LNCaP cells; assay: DHT-induced PSA mRNA in LNCaP cells, quantitative real-time RT-PCR; assay type: cell-based
Protocol: LNCaP cells (ATCC) were plated in 24-well plates at a density of 40-50×10^3 cells per well (80-100×10^3 cells per ml) in RPMI medium 1640 (ATCC) supplemented with 10% FBS (Irvine Scientific, Santa Ana, Calif.). After 72 h, the medium was replaced with RPMI medium 1640 containing 10% charcoal stripped FBS with or without polyamides at the designated concentrations. Cells were grown for an additional 48 h and then treated with 1 nM DHT for 16 h. When appropriate, bicalutamide was added 2 h before DHT stimulation. Isolation of RNA and cDNA synthesis was performed as described (21). Quantitative real-time RT-PCR was performed with SYBR Green PCR Master Mix (Applied Biosystems, Foster City, Calif.) on an ABI 7300 instrument. PSA mRNA was measured relative to β-glucuronidase as an endogenous control.

[2] = Multiple-dose subcutaneous injections, male C57BL/6J mice; assay type: in vivo; settings: 1 mg/kg SC every 3 days
Outline: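 Eight-week-old male C57BL/6J mice (n=3 per group) received 1 mg/kg polyamide subcutaneously every 3 days for three injections and were sacrificed two days after the last dose. Serum was collected by retroorbital bleeding for analysis, and two mice per group underwent histopathology.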

RNAP2 large subunit RPB1 = assay: Immunoblot of RPB1 protein in LNCaP cells; assay type: cell-based
Protocol: Samples for immunoblot analysis were prepared by plating LNCaP or DU145 cells at 1 million cells per 10 cm plate. Cells were allowed to adhere for 24-36 hr prior to incubation with compound. After the appropriate incubation time cells were washed once with ice cold PBS and harvested in ice cold 125 μL lysis buffer (50 mM Tris-HCl pH 7.4, 150 mM NaCl, 1 mM EDTA, 1% Triton X100) containing protease inhibitor cocktail (Roche), 1 mM PMSF (Sigma), and phosphatase inhibitors (Sigma). Samples were allowed incubate on ice for 10 min with vortexing once every 3 min. Cellular debris was pelleted by spinning at 14,000 rpm for 15 min to collect the supernatant. Samples were then quantified for protein content with the Bradford assay (Bio-rad) and boiled with 4× sample buffer (Li-Cor) for 5 min. Protein electrophoresis was performed in 4-20% precast Tris glycine SDS gels (Bio-rad) and transferred to PVDF membranes. Membrane blocking was done with Odyssey Blocking Buffer (Li-Cor). The following antibodies used to probe changes in protein levels or phosphorylation states: RBP1 (Santa Cruz Biotechnology, N20), p53 (Santa Cruz Biotechnology, DO1), phospho-Chk2-Thr68 (Cell Signaling Technology), Phospho-p53-Ser15 (Cell Signaling Technology), phosphor-H2A.X-Ser139 (Cell Signaling Technology), phosphor-ATM-Ser1981 (Abcam), phosphor-DNA-PKcs-Ser2056 (Abcam), and […] (Abcam). […]

[3] = system: transcripts in DHT-stimulated LNCaP cells; settings: previous studies (12); cited from earlier work
[4] = system: AR occupancy at the FKBP5 intronic enhancer; assay: Chromatin immunoprecipitation with anti-AR, FKBP5 fifth intron enhancer; assay type: cell-based; settings: 10 μM
[5] = system: GR occupancy at the GILZ enhancer; assay: Chromatin immunoprecipitation with anti-GR, GILZ enhancer, A549 cells; assay type: cell-based
Protocol: A549 cells were plated in 15-cm diameter plates. Media, polyamide treatment, time course, and […] were the same as described above. After dexamethasone treatment, cells were treated with 1% formaldehyde for 10 min. Chromatin was isolated and sheared. Antibodies to GR (graciously gifted by Keith Yamamoto) were used to immunoprecipitate GR-bound DNA fragments. Crosslinks were reversed, and PCRs using primers targeted to the regions of interest were used to assess enrichment of bound fragments as compared with mock-precipitated (no antibody) controls. PCRs were monitored with SYBR Green PCR Master Mix (Applied Biosystems) on an ABI 7300 instrument. Primer sequences and a more detailed experimental protocol are available upon request.

[6] = system: binding of LNCaP nuclear extract factors to the ARE site in the PSA promoter; assay: Electrophoretic mobility shift assay with DHT-stimulated LNCaP nuclear extract; assay type: biochemical
Protocol: containing the PSA promoter ARE (underlined) was end-labeled with ^32P and annealed to its complement. Polyamides 1 and 2 were incubated with the duplex for 3 h in previously optimized buffer conditions (45). Nuclear extract from DHT-treated LNCaP cells (Genetex, San Antonio, Tex.) was then added for an additional 45 min. Complexes were run on a 5% polyacrylamide gel and visualized on a phosphorimager.
The effects of polyamides 1 and 2 on the binding of factors present in the nuclear extract isolated from DHT-stimulated LNCaP cells to the ARE site in the PSA promoter was measured by an electrophoretic mobility shift assay (FIG. 8D).

p53 target genes = assay: Quantitative RT-PCR of p53 target genes in LNCaP cells; assay type: cell-based
Protocol: (§1) RNA was extracted using RNEasy columns (Qiagen) according to manufacturer's protocols. cDNA was generated from RNA by reverse transcriptase (Transcriptor First Strand cDNA kit, Roche). Quantitative real-time RT-PCR was performed using SYBR Green PCR Master Mix (Applied Biosystems) on an ABI 7300 instrument. mRNA was measured relative to B glucuronidase as an endogenous control.
The cells were then treated with 1, 3, and 10 μM of 78 for 72 h. Total cellular RNA was extracted using RNEasy columns (Qiagen) following the manufacturer's protocols. Isolated RNA was reverse transcribed with Transcriptor First Strand cDNA kit (Roche). Quantitative real-time PCR was performed using SYBR Green PCR Master Mix (Applied Biosystems) on an ABI 7300 instrument. Amplification of p21, IGFBP3, and GADD45A cDNA was measured relative to β-glucuronidase using previously published primers (24). Experiments were performed in biological replicates.

GILZ enhancer GRE2 = assay: Quantitative DNase I footprint titration on pKAM5 fragment, GRE2; assay type: binding
Protocol: Detailed experimental protocols are reported elsewhere (44). The GILZ enhancer contains two GREs separated by 22 base pairs (46). GRE 1 is 5'-[NT]=3' (SEQ ID NO:5) and GRE 2 is […] ID NO:7). The DNA binding of polyamides 1 and 2 on these sequences was measured by quantitative DNase I footprint. […] […]).

[7] = system: PSA mRNA expression in LNAR cells; assay: PSA mRNA expression in LNAR cells (hormone refractory, over-express AR); assay type: cell-based
Excerpt: The cell line LNAR was used, which has been engineered to over-express AR (14). LNAR cells over-express AR and form hormone refractory tumors when xenografted in mice (14).

RPB1 mRNA = assay: Quantitative RT-PCR of RPB1 transcript in LNCaP cells; assay type: cell-based; settings: 10 μM
Protocol: as §1

Q: Which “AR mRNA” value [1] does the source give for `CN(CCCNC(=O)c1cccc(C(=O)O)c1)CCCNC(=O)c1cc(NC(=O)c2cc(NC(=O)c3cc(NC(=O)c4nc(NC(=O)[C@H](N)CCNC(=O)c5cc(NC(=O)c6cc(NC(=O)c7cc(NC(=O)c8nccn8C)cn7C)cn6C)cn5C)cn4C)cn3C)cn2C)cn1C` [Polyamide 1, ImPyPyPy-2-(R)H^2Nγ-ImPyPyPy-NHMe-IPA] here?
A: The value was “minimally affected”.

Q: What about the “effects on cell growth” value ([1]; LNCaP, over the course of the experiment) of the same compound?
A: Its value is “no obvious detrimental effects on cell growth”.

Q: And the “liver and kidney histopathology” value [2]?
A: Its value is “mild multifocal hepatocellular necrosis and apoptosis in the liver and mild variable tubular attenuation, karyomegaly and epithelial necrosis and apoptosis in the kidney”.

Q: What about the “liver and kidney serum markers” value [2] of the same compound?
A: The value was “elevated AST and ALT”.

Q: What about the “weight and physical morbidity” value ([2]; three injections, listed as 77) of the same compound?
A: Its value is “no loss in weight or physical morbidities”.

Q: What about the RPB1 protein level (RNAP2 large subunit RPB1) of the same compound?
A: Its RPB1 protein level is “depletion of RPB1 in a time- and concentration-dependent manner”.

Q: What about the “share of DHT-induced transcripts affected” value [3] of the same compound?
A: Its value is “approximately 30%”.

Q: What about the “occupancy of AR at the FKBP5 intronic enhancer” value [4] of the same compound?
A: Its value is “decreased occupancy”.

Q: And the “occupancy of GR at the GILZ enhancer” value ([5]; 1 μM as printed)?
A: The value was “decreased occupancy”.

Q: What about the “GR occupancy at the GILZ enhancer” value ([5]; 10 μM, FIG. 17 legend) of the same compound?
A: Its value is “decreased”.

Q: And the “concentration inhibiting binding to the labeled duplex” value [6]?
A: The value was ≥ 10 nM.

Q: And the “induction of p53 target genes” value (p53 target genes)?
A: The value was “induced expression of p53 genes”.

Q: What about the Ka (GILZ enhancer GRE2) of the same compound?
A: Its Ka is 8.8±1.8×10^9.

Q: What about the “effect on DHT-induced PSA mRNA expression in LNAR cells” value [7] of the same compound?
A: Its value is “maintains efficacy”.

Q: And the “expression of RPB1 mRNA” value (RPB1 mRNA)?
A: The value was “modestly increased”.
